Bridge positions count the residues as written; N and C are the ends. Peptide text beside a SMILES is read from it.
Legend:
[1] = biological target: T1, trypsin (Bos taurus, UniProt P00760); assay: in vitro
T1 sequence (P00760 24-246): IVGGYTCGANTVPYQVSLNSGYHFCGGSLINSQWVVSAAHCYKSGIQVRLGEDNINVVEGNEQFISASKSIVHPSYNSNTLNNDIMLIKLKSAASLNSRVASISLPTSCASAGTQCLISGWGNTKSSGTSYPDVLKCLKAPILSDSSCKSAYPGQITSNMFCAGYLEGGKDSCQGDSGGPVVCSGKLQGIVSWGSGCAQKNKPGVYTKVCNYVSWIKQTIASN
Summary of the method: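 Peptides were preincubated for 5 min at 37 °C and then digested with 0.05 μg/μL trypsin solution (stock). Remaining intact peptide was quantified as RP-HPLC peak area.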

[2] = biological target: chymotrypsin (Bos taurus, UniProt P00766); assay: in vitro; details: for Remaining peak area (%)/chymotrypsin: 0 h; for remaining at 0.025 h, 60 μM / remaining at 0.05 h, 60 μM / remaining at 0.075 h, 60 μM / remaining at 0.1 h, 60 μM / remaining at 0.15 h, 60 μM / remaining at 0.25 h, 60 μM / remaining at 0.5 h, 60 μM / remaining at 1 h, 60 μM: isolated enzyme chymotrypsin, pH 7.8, Remaining peak area (%)/chymotrypsin
Summary of the method: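 Peptide and 0.05 μg/μL chymotrypsin were preincubated at 37 °C for 5 min, then mixed. Aliquots taken from 1.5 up to 60.0 min were quenched with 10% TFA, and remaining peptide was measured as RP-HPLC peak area.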

[3] = biological target: elastase (Sus scrofa, UniProt P00772); assay: in vitro
Experimental: FIG. 19. […] At different time point, 25 μL aliquots was taken out, and 10% (v/v) TFA was added to terminate the reaction.
(§1) Mix by centrifugation at 8000 rpm for 30 seconds.
Arrange a certain volume of 0.5 μg/μL elastase solution in another sterile EP. Incubate the EP tubes containing peptides and enzymes at 37° C. for 5 min, and then add 4.5 μL of elastase solution to each EP tube containing peptides and mix well. Start timing and remove 25 μL of reaction solution at 1.5, 3.0, 4.5, 6.0, 9.0, 15.0, 30.0, and 60.0 min later, respectively. Add 3.75 μL of 10% TFA to terminate the reaction and mix well by centrifugation at 8000 rpm for 30 seconds.
Referring to the experimental method in Example 5, in vitro stability of salmon Calcitonin analogs with oral administration activity to the enzymatic hydrolysis by trypsin, chymotrypsin and elastase were performed.
Referring to the experimental method in Example 5, in vitro stability of IL-17A inhibitory peptides towards the enzymatic hydrolysis by trypsin, chymotrypsin and elastase were performed.

[4] = biological target: DPP-IV (Homo sapiens, UniProt P27487); assay: Tolerance of GLP-1 and its analogues to DPP-IV (RP-HPLC remaining peak area); assay type: in vitro ADME; details: peptide 25 μM, DPP-IV 0.5 ng/μL, 37° C.
Experimental: as §1
(2) Arrange a certain volume of 0.005 μg/μL DPP-IV solution in another sterile EP.

[5] = biological target: NEP24.11 (Homo sapiens, UniProt P08473); assay: Tolerance of GLP-1 and its analogues to NEP24.11 (RP-HPLC remaining peak area); assay type: in vitro ADME; details: peptide 30 μM, NEP24.11 1.0 ng/μL, 37° C.
Experimental: as §1
Arrange a certain volume of 0.04 μg/μL NEP24.11 enzyme solution in another sterile EP.

[6] = Stability of GLP-1 and its analogues in human serum; details: 25% (v/v) human serum
[7] = isolated enzyme trypsin, pH 7.8

Chain of elastase (P00772 27-266): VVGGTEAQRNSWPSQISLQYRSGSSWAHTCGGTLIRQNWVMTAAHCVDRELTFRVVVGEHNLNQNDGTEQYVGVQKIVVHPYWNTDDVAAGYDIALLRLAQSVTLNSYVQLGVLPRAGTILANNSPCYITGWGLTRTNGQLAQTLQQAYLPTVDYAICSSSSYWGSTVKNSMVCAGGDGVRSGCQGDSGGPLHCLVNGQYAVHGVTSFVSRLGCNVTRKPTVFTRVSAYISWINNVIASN
Chain of DPP-IV (P27487 whole entry, species assumed): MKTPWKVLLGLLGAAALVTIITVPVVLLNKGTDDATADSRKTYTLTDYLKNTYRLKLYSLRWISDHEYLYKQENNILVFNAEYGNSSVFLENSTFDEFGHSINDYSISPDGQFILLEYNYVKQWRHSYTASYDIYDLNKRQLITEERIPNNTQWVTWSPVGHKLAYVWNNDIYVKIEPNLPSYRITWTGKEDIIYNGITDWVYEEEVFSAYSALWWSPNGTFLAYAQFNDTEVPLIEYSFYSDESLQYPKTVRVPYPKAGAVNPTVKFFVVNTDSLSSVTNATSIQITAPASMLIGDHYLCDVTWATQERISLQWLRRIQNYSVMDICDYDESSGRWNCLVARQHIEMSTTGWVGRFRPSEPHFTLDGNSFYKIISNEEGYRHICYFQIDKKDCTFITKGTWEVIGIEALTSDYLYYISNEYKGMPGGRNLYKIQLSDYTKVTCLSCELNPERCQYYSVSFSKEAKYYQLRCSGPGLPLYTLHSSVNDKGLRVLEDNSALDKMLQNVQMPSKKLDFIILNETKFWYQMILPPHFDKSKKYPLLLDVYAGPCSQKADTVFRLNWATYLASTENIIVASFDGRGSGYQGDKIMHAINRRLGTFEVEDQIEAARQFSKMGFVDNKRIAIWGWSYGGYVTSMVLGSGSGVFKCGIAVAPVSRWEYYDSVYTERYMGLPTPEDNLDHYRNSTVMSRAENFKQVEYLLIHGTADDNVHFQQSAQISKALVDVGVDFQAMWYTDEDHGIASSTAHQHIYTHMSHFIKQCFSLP
Chain of NEP24.11 (P08473 whole entry): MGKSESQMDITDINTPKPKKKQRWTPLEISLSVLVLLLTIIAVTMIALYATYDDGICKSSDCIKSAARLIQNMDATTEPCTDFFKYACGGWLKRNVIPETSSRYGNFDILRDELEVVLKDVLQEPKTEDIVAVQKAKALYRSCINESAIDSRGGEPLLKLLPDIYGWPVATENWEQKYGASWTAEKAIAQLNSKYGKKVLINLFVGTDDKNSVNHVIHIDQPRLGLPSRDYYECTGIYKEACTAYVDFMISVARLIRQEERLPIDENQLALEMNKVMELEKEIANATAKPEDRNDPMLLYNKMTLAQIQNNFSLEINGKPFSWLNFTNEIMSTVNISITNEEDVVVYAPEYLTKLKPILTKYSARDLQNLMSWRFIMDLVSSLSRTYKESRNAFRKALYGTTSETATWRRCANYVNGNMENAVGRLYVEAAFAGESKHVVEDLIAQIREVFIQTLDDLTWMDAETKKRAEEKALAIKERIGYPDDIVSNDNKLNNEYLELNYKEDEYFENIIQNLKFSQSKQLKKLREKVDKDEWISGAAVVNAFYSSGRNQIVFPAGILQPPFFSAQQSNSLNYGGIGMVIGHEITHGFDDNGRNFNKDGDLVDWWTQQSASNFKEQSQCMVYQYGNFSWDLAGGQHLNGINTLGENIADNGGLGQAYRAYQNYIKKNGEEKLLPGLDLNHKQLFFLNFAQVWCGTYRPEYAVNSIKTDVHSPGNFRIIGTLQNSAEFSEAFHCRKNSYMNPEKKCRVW

CC[C@H](C)[C@H](N)C(=O)N[C@@H](Cc1c[nH]cn1)C(=O)N[C@H](C(=O)N[C@H](C(=O)N[C@H](C(=O)N1CCC[C@H]1C(=O)N[C@@H](C)C(=O)N[C@@H](CC(=O)O)C(=O)N[C@@H](CC(C)C)C(=O)N[C@@H](Cc1c[nH]c2ccccc12)C(=O)N[C@@H](CC(=O)O)C(=O)N[C@@H](Cc1c[nH]c2ccccc12)C(=O)N[C@H](C(=O)N[C@@H](CC(N)=O)C(=O)O)[C@@H](C)CC)[C@@H](C)CC)[C@@H](C)O)C(C)C [17A, reference compound]
stability towards trypsin hydrolysis (in words) [1]: very stable towards trypsin | stability towards chymotrypsin hydrolysis (in words) [2]: unstable towards chymotrypsin and elastase | Remaining peak area (%)/chymotrypsin [2]: 100.0 ± 0.0% | remaining at 0.025 h, 60 μM [2]: 68.8 ± 5.5% | remaining at 0.05 h, 60 μM [2]: 59.2 ± 6.3% | remaining at 0.075 h, 60 μM [2]: 46.2 ± 5.2% | remaining at 0.1 h, 60 μM [2]: 41.4 ± 4.5% | remaining at 0.15 h, 60 μM [2]: 24.3 ± 1.2% | stability towards elastase hydrolysis (in words) [3]: unstable towards chymotrypsin and elastase

CC[C@H](C)[C@H](N)C(=O)N[C@@H](Cc1c[nH]cn1)C(=O)N[C@H](C(=O)N[C@H](C(=O)N[C@H](C(=O)N1CCC[C@H]1C(=O)N[C@@H](C)C(=O)N[C@@H](CC(=O)O)C(=O)N[C@@H](CC(C)C)C(=O)N[C@@H](Cc1c[nH]c2ccccc12)C(=O)N[C@@H](CC(=O)O)C(=O)N[C@@H](Cc1c[nH]c2ccccc12)C(=O)N[C@H](C(=O)N[C@@H](CC(N)=O)C(=O)NCC(=O)N[C@H](C(=O)N[C@H]1CSSC[C@@H](C(=O)N[C@@H](CCC(N)=O)C(=O)O)NC(=O)[C@H]([C@@H](C)CC)NC(=O)[C@@H]2CCCN2C(=O)[C@@H]2CCCN2C(=O)[C@H]([C@@H](C)CC)NC(=O)[C@H](CO)NC(=O)[C@H](C)NC(=O)[C@H]([C@@H](C)O)NC1=O)[C@@H](C)CC)[C@@H](C)CC)[C@@H](C)CC)[C@@H](C)O)C(C)C [17A-EC] (H-IHVTIPADLWDWINGICTASIPPICQ-OH; disulfide 17-25)
Remaining peak area (%)/chymotrypsin [2]: 100.0 ± 0.0% | remaining at 0.025 h, 60 μM [2]: 85.5% | remaining at 0.05 h, 60 μM [2]: 93.8 ± 2.4% | remaining at 0.075 h, 60 μM [2]: 89.6% | remaining at 0.1 h, 60 μM [2]: 91.6 ± 5.3% | remaining at 0.25 h, 60 μM [2]: 79.8 ± 2.6% | remaining at 0.5 h, 60 μM [2]: 80.9% | remaining at 1 h, 60 μM [2]: 68% | stability towards elastase hydrolysis (in words) [3]: tolerated to the degradation of corresponding serine proteases

CC[C@H](C)[C@H](NC(=O)[C@H](Cc1ccccc1)NC(=O)[C@H](CCC(=O)O)NC(=O)[C@H](CCCCN)NC(=O)[C@H](C)NC(=O)[C@H](C)NC(=O)[C@H](CCC(N)=O)NC(=O)CNC(=O)[C@H](CCC(=O)O)NC(=O)[C@H](CC(C)C)NC(=O)[C@H](Cc1ccc(O)cc1)NC(=O)[C@H](CO)NC(=O)[C@H](CO)NC(=O)[C@@H](NC(=O)[C@H](CC(=O)O)NC(=O)[C@H](CO)NC(=O)[C@@H](NC(=O)[C@H](Cc1ccccc1)NC(=O)[C@@H](NC(=O)CNC(=O)[C@H](CCC(=O)O)NC(=O)[C@H](C)NC(=O)[C@H](Cc1c[nH]cn1)NC(=O)CNC(=O)CNC(=O)[C@@H](NC(=O)[C@@H]1CCCN1C(=O)[C@@H](NC(=O)CNC(=O)CNC(=O)[C@@H]1CCCN1C(=O)[C@H](Cc1ccccc1)NC(=O)[C@@H]1CSSC[C@H](NC(=O)[C@H](CCCNC(=N)N)NC(=O)CN)C(=O)N[C@@H]([C@@H](C)O)C(=O)N[C@@H](CCCCN)C(=O)N[C@@H](CO)C(=O)N[C@@H]([C@@H](C)CC)C(=O)N2CCC[C@H]2C(=O)N2CCC[C@H]2C(=O)N[C@@H]([C@@H](C)CC)C(=O)N1)[C@@H](C)CC)[C@@H](C)CC)[C@@H](C)O)[C@@H](C)O)C(C)C)C(=O)N[C@@H](C)C(=O)N[C@@H](Cc1c[nH]c2ccccc12)C(=O)N[C@@H](CC(C)C)C(=O)N[C@H](C(=O)N[C@@H](CCCCN)C(=O)NCC(=O)N[C@@H](CCCNC(=N)N)C(=O)NCC(=O)NCC(=O)N[C@@H](CCCCN)C(=O)O)C(C)C [BT1-D-GLP-1]
Remaining peak area (%)/DPP-IV ([4]; 0.0 h): 100.0 ± 0.0% | remaining at 0.5 h, 25 μM ([4]; isolated DPP-IV enzyme in buffer, pH 8, 0.5 h): 72.3 ± 2.4% | remaining at 2 h, 25 μM ([4]; isolated DPP-IV enzyme in buffer, pH 8, 2.0 h): 75.3 ± 1.5% | remaining at 4 h, 25 μM ([4]; isolated DPP-IV enzyme in buffer, pH 8, 4.0 h): 72.6 ± 2% | remaining at 8 h, 25 μM ([4]; isolated DPP-IV enzyme in buffer, pH 8, 8.0 h): 82 ± 3.2% | remaining at 12 h, 25 μM ([4]; isolated DPP-IV enzyme in buffer, pH 8, 12.0 h): 82.5 ± 4.9% | Remaining peak area (%)/NEP24.11 ([5]; 0.0 h): 100.0 ± 0.0% | remaining at 0.5 h, 30 μM ([5]; isolated NEP24.11 enzyme in buffer, pH 7.4, 0.5 h): 88.2 ± 2.4% | remaining at 2 h, 30 μM ([5]; isolated NEP24.11 enzyme in buffer, pH 7.4, 2.0 h): 85.2 ± 0.5% | remaining at 4 h, 30 μM ([5]; isolated NEP24.11 enzyme in buffer, pH 7.4, 4.0 h): 79.1 ± 3.2% | remaining at 8 h, 30 μM ([5]; isolated NEP24.11 enzyme in buffer, pH 7.4, 8.0 h, read-out: Remaining peak area (%)/NEP24.11): 74 ± 1.3% | remaining at 0.025 h, 60 μM [1, 7]: 97.3 ± 8.8% | remaining at 0.05 h, 60 μM [1, 7]: 96.6 ± 2% | remaining at 0.075 h, 60 μM [1, 7]: 90.4 ± 2.4% | remaining at 0.1 h, 60 μM [1, 7]: 90.3 ± 2.5% | remaining at 0.15 h, 60 μM [1, 7]: 89.7 ± 3.4% | remaining at 0.25 h, 60 μM [1, 7]: 87.3 ± 2.6% | remaining at 0.5 h, 60 μM [1, 7]: 88.6 ± 4.4% | remaining at 1 h, 60 μM [1, 7]: 87.7 ± 6.2% | remaining at 0.025 h, 60 μM [2]: 68.7 ± 1.6% | remaining at 0.05 h, 60 μM [2]: 61.9 ± 1.5% | remaining at 0.075 h, 60 μM [2]: 57.4 ± 2.7% | remaining at 0.1 h, 60 μM [2]: 53.1 ± 0.5% | remaining at 0.15 h, 60 μM [2]: 49.8 ± 2.8% | Remaining peak area (%)/human serum ([6]; 0.0 h, peptide 0.03 mM, 37° C.): 100.0 ± 0.0% | serum stability (in words) [6]: good serum stability | remaining at 0.5 h, 0.03 mM ([6]; human, pH 7): 68.9 ± 7.1% | remaining at 2 h, 0.03 mM ([6]; human, pH 7): 95.1 ± 7.5% | remaining at 4 h, 0.03 mM ([6]; human, pH 7): 89.4 ± 7.9% | remaining at 8 h, 0.03 mM ([6]; human, pH 7): 54.8 ± 4.1% | remaining at 12 h, 0.03 mM ([6]; human, pH 7): 49.7 ± 2.5%

CC[C@H](C)[C@H](NC(=O)CNC(=O)[C@@H]1CCCN1C(=O)[C@@H](NC(=O)CNC(=O)[C@H](CO)NC(=O)CNC(=O)[C@@H](NC(=O)[C@H](CC(N)=O)NC(=O)[C@@H](NC(=O)[C@H](CCCNC(=N)N)NC(=O)[C@@H]1CCCN1C(=O)[C@H](Cc1ccc(O)cc1)NC(=O)[C@@H](NC(=O)[C@H](CCC(N)=O)NC(=O)[C@H](CC(C)C)NC(=O)[C@H](CCCCN)NC(=O)[C@H](Cc1c[nH]cn1)NC(=O)[C@H](C)NC(=O)[C@H](CCC(=O)O)NC(=O)[C@H](CCC(N)=O)NC(=O)[C@H](CO)NC(=O)[C@H](CC(C)C)NC(=O)[C@H](CCCCN)NC(=O)CNC(=O)[C@H](CC(C)C)NC(=O)CNC(=O)[C@@H]1CSSC[C@H](N)C(=O)N[C@@H](CO)C(=O)N[C@@H](CC(N)=O)C(=O)N[C@@H](CC(C)C)C(=O)N[C@@H](CO)C(=O)N[C@@H]([C@@H](C)O)C(=O)N1)[C@@H](C)O)[C@@H](C)O)[C@@H](C)O)[C@@H](C)O)C(=O)N[C@H]1CSSC[C@@H](C(=O)N[C@@H](CCC(N)=O)C(=O)O)NC(=O)[C@H]([C@@H](C)CC)NC(=O)[C@@H]2CCCN2C(=O)[C@@H]2CCCN2C(=O)[C@H]([C@@H](C)CC)NC(=O)[C@H](CO)NC(=O)[C@H](C)NC(=O)[C@H]([C@@H](C)O)NC1=O [Cal-EC]
stability towards chymotrypsin hydrolysis (in words) [2]: certain tolerance to chymotrypsin | Remaining peak area (%)/chymotrypsin [2]: 100.0 ± 0.0% | remaining at 0.025 h, 60 μM [2]: 95.4% | remaining at 0.05 h, 60 μM [2]: 31.3% | remaining at 0.1 h, 60 μM [2]: 29.3 ± 1.4% | remaining at 0.15 h, 60 μM [2]: 27.8 ± 0.2% | remaining at 0.25 h, 60 μM [2]: 22.3% | remaining at 0.5 h, 60 μM [2]: 21.4% | remaining at 1 h, 60 μM [2]: 19.3% | stability towards elastase hydrolysis (in words) [3]: resistant to the corresponding protease degradation
